Measurements from US10562912B2 (C&C Research Laboratories, priority 2013, dated 2020).

What was measured:
Type in all cases: cell-based
LNCaP = test: Cell growth inhibition assay, prostate cancer cell line LNCaP (medium with 10 ng/mL IL-6); details: Homo sapiens, medium supplemented with 10 ng/mL of IL-6, 10,000 cells/well
STAT3 = biological target: T1, STAT3 (Homo sapiens, UniProt P40763); test: STAT3 reporter gene assay (luciferase), LNCaP stable cell line (pSTAT3-TA-luc), IL-6 stimulation
T1 construct: plasmid pSTAT3-TA-luc), which contains a stably operating STAT3 promoter; endogenous in cells
Summary of the method: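 Cytotoxicity was run on a duplicate plate with CellTiter-Glo, while the other plate gave luciferase read-outs from lysed LNCaP pSTAT3-TA-luc reporter cells. Cells were treated with graded compound concentrations plus IL-6 (10 ng/mL final) for 24–48 h in 3% DCC-FBS medium. Unstimulated and stimulated wells served as negative and positive controls.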

U266 = test: Cell growth inhibition assay, blood cancer cell line U266; details: Homo sapiens, U-266 blood cancer cell line
Protocol: The inhibitory effects of the compounds of the present invention against the growth of cancer cells were evaluated as shown below. The cancer cell lines including stomach cancer cell line (AGS), breast cancer cell lines (MDA-MB-231, MDA-MB-468, and BT-549), prostate cancer cell lines (LNCaP and DU-145), colon cancer cell line (HCT116), ovarian cancer cell line (SW626), liver cancer cell line (Hep3B), kidney cancer cell line (ACHN), lung cancer cell line (NCI-H23) and blood cancer cell lines (HEL92.1.7 and U266) were cultured under the protocol provided by each supplier. A medium supplemented with 10 ng/mL of IL-6 was used for LNCaP, a prostate cancer cell line, when treated with a drug. Each type of cells to be used in experiments were sub-cultured in a 96-well plate by counting the exact number of cells using Tali™ Image-based Cytometer (Life Technologies). In a 96-well plate, AGS, HCT116, and DU-145 were employed with 3,000 cells/well; NCI-H23, SW626, Hep3B, ACHN, BT-549, MDA-MB-231, HEL92.1.7, and U266 were employed with 5,000 cells/well; and LNCaP and MDA-MB-468 were employed with 10,000 cells/well. The cells were treated with the compounds listed in Examples which were diluted in various concentrations. Upon completion of the compounds treatment, AGS, HCT116, SW626, DU145, NCI-H23, Hep3B, ACHN, BT-549, LNCaP, HEL92.1.7, and U266 cells were cultured at 37° C. under 5% CO2 for from 72 to 96 hours, and MDA-MB-231 and MDA-MB-468 cells were cultured at 37° C. in air for from 72 to 96 hours. Subsequently, the cells were observed under microscope and drug precipitation and particular findings were investigated and recorded. And then, the 96-well plate was placed at room temperature for 30 minutes, added with 20 μL/well of CellTiter-Glo solution (Cat No. G7573, Promega) and shaken for 10 minutes, followed by being subjected to the measurement using PHERAstar™ microplate reader (BMG LABTECH) according to the supplier's general luminometer protocol. Wells where only culture liquid added without cell plating were used as a negative control, whereas wells where culture liquid containing 0.1% DMSO instead of the compounds listed in Examples were used as a positive control.

HEL92.1.7 = test: Cell growth inhibition assay, blood cancer cell line HEL92.1.7; details: Homo sapiens, HEL 92.1.7, HEL92.1.7 blood cancer cell line
Summary of the method: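 Cells were seeded at 3,000/well (HCT116, DU-145) or 5,000/well (SW626 and the others) and exposed to serial compound dilutions for 72 to 96 h at 37 °C under 5% CO2. Viability was read as CellTiter-Glo luminescence against 0.1% DMSO and cell-free wells.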

DU-145 = test: Cell growth inhibition assay, prostate cancer cell line DU-145; details: Homo sapiens, DU-145 prostate cancer cell line
Summary of the method: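 Viability by CellTiter-Glo luminescence after 72–96 h of compound dosing at 37° C. under 5% CO2; DU-145 and HCT116 seeded at 3,000 cells/well, SW626 at 5,000 cells/well.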

T1 sequence (P40763 whole entry): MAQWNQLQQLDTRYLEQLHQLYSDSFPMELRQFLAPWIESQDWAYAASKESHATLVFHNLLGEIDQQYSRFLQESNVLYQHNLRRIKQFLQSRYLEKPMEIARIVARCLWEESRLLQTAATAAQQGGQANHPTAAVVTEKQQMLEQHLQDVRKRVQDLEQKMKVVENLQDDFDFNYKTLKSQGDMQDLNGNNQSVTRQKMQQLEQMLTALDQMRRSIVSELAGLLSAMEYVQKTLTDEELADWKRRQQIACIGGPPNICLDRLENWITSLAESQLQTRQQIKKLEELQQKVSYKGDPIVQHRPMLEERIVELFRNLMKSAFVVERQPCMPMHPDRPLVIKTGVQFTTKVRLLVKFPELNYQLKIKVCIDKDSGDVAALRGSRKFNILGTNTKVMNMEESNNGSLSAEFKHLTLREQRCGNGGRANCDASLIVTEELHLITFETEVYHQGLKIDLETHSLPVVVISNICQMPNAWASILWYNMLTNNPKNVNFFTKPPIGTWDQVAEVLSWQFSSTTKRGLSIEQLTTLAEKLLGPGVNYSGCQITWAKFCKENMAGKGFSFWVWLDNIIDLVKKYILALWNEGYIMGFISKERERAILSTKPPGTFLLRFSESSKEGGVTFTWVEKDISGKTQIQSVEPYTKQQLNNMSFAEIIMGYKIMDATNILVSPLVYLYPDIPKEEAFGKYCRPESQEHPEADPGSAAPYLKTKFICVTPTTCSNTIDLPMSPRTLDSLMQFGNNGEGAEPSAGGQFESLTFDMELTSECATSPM

| IC50 (LNCaP) | IC50 (STAT3) | IC50 (U266) | IC50 (HEL92.1.7) | IC50 (DU-145) | Compound |
| --- | --- | --- | --- | --- | --- |
| 0.13 µM | 0.066 µM | 0.22 µM | 0.14 µM | 0.06 µM | CCOc1cc(OC(F)(F)F)cc(C(C)(C)c2cc(Br)cc(NC(=O)c3cc4cc(NS(C)(=O)=O)ncc4s3)c2)c1 [Example 61, N-(3-bromo-5-(2-(3-ethoxy-5-(trifluoromethoxy)phenyl)propan-2-yl)phenyl)-5-(methylsulfonamido)thieno[2,3-c]pyridine-2-carboxamide] |
| 0.16 µM | 0.067 µM | 0.33 µM | 0.18 µM | 0.047 µM | COc1cc(OC(F)(F)F)cc(C(C)(C)c2cc(Cl)cc(NC(=O)c3cc4cc(NS(C)(=O)=O)cnc4s3)c2)c1 [Example 57, N-(3-chloro-5-(2-(3-methoxy-5-(trifluoromethoxy)phenyl)propan-2-yl)phenyl)-5-(methylsulfonamido)thieno[2,3-b]pyridine-2-carboxamide] |
| 0.029 µM | 0.008 µM | 0.021 µM | 0.02 µM | 0.003 µM | CC#CCOc1cc(OC(F)(F)F)cc(C(C)(C)c2cc(Cl)cc(NC(=O)c3cc4cc(NS(C)(=O)=O)ccc4s3)c2)c1 [Example 75, N-(3-(2-(3-(but-2-yn-1-yloxy)-5-(trifluoromethoxy)phenyl)propan-2-yl)-5-chlorophenyl)-5-(methylsulfonamido)benzo[b]thiophene-2-carboxamide] |
| 0.12 µM | 0.07 µM | 0.28 µM | 0.24 µM | 0.06 µM | CC(C)Oc1cc(CN2CCN(c3noc(C(C)C)n3)CC2)cc(C(C)(C)c2cc(Cl)cc(NC(=O)c3cc4cc(NS(C)(=O)=O)ccc4s3)c2)c1 [Example 129, N-(3-chloro-5-(2-(3-isopropoxy-5-((4-(5-isopropyl-1,2,4-oxadiazol-3-yl)piperazin-1-yl)methyl)phenyl)propan-2-yl)phenyl)-5-(methylsulfonamido)benzo[b]thiophene-2-carboxamide] |
| 0.29 µM | 0.068 µM | 0.46 µM | 0.36 µM | 0.12 µM | CC(C)Oc1cc(OC(F)(F)F)cc(C(C)(C)c2cc(Cl)cc(NC(=O)c3cc4nc(NS(C)(=O)=O)ccc4s3)c2)c1 [Example 70, N-(3-chloro-5-(2-(3-isopropoxy-5-(trifluoromethoxy)phenyl)propan-2-yl)phenyl)-5-(methylsulfonamido)thieno[3,2-b]pyridine-2-carboxamide] |
| 0.3 µM | 0.12 µM | 0.22 µM | 0.068 µM | 0.05 µM | CC(C)(c1cc(Cl)cc(NC(=O)c2cc3cc(NS(C)(=O)=O)ccc3s2)c1)c1cc(OCC#N)cc(OC(F)(F)F)c1 [Example 77, N-(3-chloro-5-(2-(3-(cyanomethoxy)-5-(trifluoromethoxy)phenyl)propan-2-yl)phenyl)-5-(methylsulfonamido)benzo[b]thiophene-2-carboxamide] |
| 0.76 µM | 0.308 µM | 0.74 µM | > 1.1 µM | 0.17 µM | CC(C)Oc1cc(CN2CCN(C3COC3)CC2)cc(C(C)(C)c2cc(Cl)cc(NC(=O)c3cc4cc(NS(C)(=O)=O)ccc4s3)c2)c1 [Example 130, N-(3-chloro-5-(2-(3-isopropoxy-5-((4-(oxetan-3-yl)piperazin-1-yl)methyl)phenyl)propan-2-yl)phenyl)-5-(methylsulfonamido)benzo[b]thiophene-2-carboxamide] |
| 0.15 µM | 0.046 µM | 0.13 µM | 0.11 µM | 0.042 µM | CC(C)Oc1cc(CN2CCN(C(=O)OC(C)(C)C)CC2)cc(C(C)(C)c2cc(Br)cc(NC(=O)c3cc4cc(NS(C)(=O)=O)ccc4s3)c2)c1 [Example 123, tert-butyl 4-(3-(2-(3-bromo-5-(5-(methylsulfonamido)benzo[b]thiophene-2-carboxamido)phenyl)propan-2-yl)-5-isopropoxybenzyl)piperazine-1-carboxylate] |
| 0.032 µM | 0.007 µM | 0.005 µM | 0.074 µM | 0.006 µM | CCOc1cc(OC(F)(F)F)cc(C(C)(C)c2cc(Cl)cc(NC(=O)c3cc4cc(NS(C)(=O)=O)ccc4s3)c2)c1 [Example 58, N-(3-chloro-5-(2-(3-ethoxy-5-(trifluoromethoxy)phenyl)propan-2-yl)phenyl)-5-(methylsulfonamido)benzo[b]thiophene-2-carboxamide] |
| 0.058 µM | 0.052 µM | 0.14 µM | 0.09 µM | 0.052 µM | CC(C)Oc1cc(OC(F)(F)F)cc(C(C)(C)c2cc(Cl)cc(NC(=O)c3cc4cc(NS(C)(=O)=O)cnc4s3)c2)c1 [Example 69, N-(3-chloro-5-(2-(3-isopropoxy-5-(trifluoromethoxy)phenyl)propan-2-yl)phenyl)-5-(methylsulfonamido)thieno[2,3-b]pyridine-2-carboxamide] |
| 0.03 µM | 0.024 µM | 0.045 µM | 0.048 µM | 0.008 µM | CC(C)Oc1cc(OC(F)(F)F)cc(C(C)(C)c2cc(F)cc(NC(=O)c3cc4cc(NS(C)(=O)=O)ccc4s3)c2)c1 [Example 82, N-(3-fluoro-5-(2-(3-isopropoxy-5-(trifluoromethoxy)phenyl)propan-2-yl)phenyl)-5-(methylsulfonamido)benzo[b]thiophene-2-carboxamide] |
| 0.14 µM | 0.15 µM | 0.43 µM | 0.34 µM | 0.066 µM | CC(C)Oc1cc(CN2CCN(C(=O)C(C)(C)C)CC2)cc(C(C)(C)c2cc(Cl)cc(NC(=O)c3cc4cc(NS(C)(=O)=O)ccc4s3)c2)c1 [Example 127, N-(3-chloro-5-(2-(3-isopropoxy-5-((4-pivaloylpiperazin-1-yl)methyl)phenyl)propan-2-yl)phenyl)-5-(methylsulfonamido)benzo[b]thiophene-2-carboxamide] |
| 0.068 µM | 0.016 µM | 0.063 µM | 0.057 µM | 0.01 µM | CC(C)(c1cc(Cl)cc(NC(=O)c2cc3cc(NS(C)(=O)=O)ccc3s2)c1)c1cc(OC(F)(F)F)cc(OC(F)(F)C(F)F)c1 [Example 80, N-(3-chloro-5-(2-(3-(1,1,2,2-tetrafluoroethoxy)-5-(trifluoromethoxy)phenyl)propan-2-yl)phenyl)-5-(methylsulfonamido)benzo[b]thiophene-2-carboxamide] |
| 0.091 µM | 0.009 µM | 0.17 µM | 0.13 µM | 0.048 µM | CC(C)Oc1cc(OC(F)(F)F)cc(C(C)(C)c2cc(Cl)cc(NC(=O)c3cc4cc(NS(C)(=O)=O)ncc4s3)c2)c1 [Example 71, N-(3-chloro-5-(2-(3-isopropoxy-5-(trifluoromethoxy)phenyl)propan-2-yl)phenyl)-5-(methylsulfonamido)thieno[2,3-c]pyridine-2-carboxamide] |

| Compound | IC50 (LNCaP) | IC50 (STAT3) | IC50 (U266) | IC50 (HEL92.1.7) | IC50 (DU-145) |
| --- | --- | --- | --- | --- | --- |
| CC(C)COc1cc(OC(F)(F)F)cc(C(C)(C)c2cc(Cl)cc(NC(=O)c3cc4cc(NS(C)(=O)=O)ccc4s3)c2)c1 [Example 72, N-(3-chloro-5-(2-(3-isobutoxy-5-(trifluoromethoxy)phenyl)propan-2-yl)phenyl)-5-(methylsulfonamido)benzo[b]thiophene-2-carboxamide] | 0.034 µM | 0.021 µM | 0.1 µM | 0.087 µM | 0.006 µM |
